In the supplement of paper PMC10307832:

What was measured:
Test in all cases: relative viability (nuclei count vs DMSO), 5 days (fraction); higher = more cells survive
Obatoclax + Bortezomib = compound: COC1=CC(c2cc3ccccc3[nH]2)=N/C1=C\c1[nH]c(C)cc1C [Obatoclax] + CC(C)C[C@H](NC(=O)[C@H](Cc1ccccc1)NC(=O)c1cnccn1)B(O)O [Bortezomib] (partner 0.002 µM)
Method in brief: (§1)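 Lung cancer cell lines were seeded in 1536-well plates and dosed by pin tool the next day, with either a single drug or a fixed anchor-drug dose combined with five library-drug doses (not always all listed) spaced in √10 steps. Five days later, one step fixed the cells and stained their nuclei (final 0.05% Triton X-100, 1% formaldehyde, 1 ug/ml Hoechst), and nuclei were counted on 4× images. Relative viability is the nuclei count in treated wells divided by the count in vehicle wells, and each value is the median of duplicate plates.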

Obatoclax + Luminespib = compound: COC1=CC(c2cc3ccccc3[nH]2)=N/C1=C\c1[nH]c(C)cc1C [Obatoclax] + CCNC(=O)c1noc(-c2cc(C(C)C)c(O)cc2O)c1-c1ccc(CN2CCOCC2)cc1 [Luminespib] (partner 0.01 µM)
Method in brief: as §1

Bortezomib + Olaparib = compound: CC(C)C[C@H](NC(=O)[C@H](Cc1ccccc1)NC(=O)c1cnccn1)B(O)O [Bortezomib] + O=C(c1cc(Cc2n[nH]c(=O)c3ccccc23)ccc1F)N1CCN(C(=O)C2CC2)CC1 [Olaparib] (partner 8 µM)
Method in brief: as §1

Bortezomib + OSI-027 = compound: CC(C)C[C@H](NC(=O)[C@H](Cc1ccccc1)NC(=O)c1cnccn1)B(O)O [Bortezomib] + COc1cccc2cc(-c3nc([C@H]4CC[C@H](C(=O)O)CC4)n4ncnc(N)c34)[nH]c12 [OSI-027] (partner 0.5 µM)
Method in brief: as §1

Row | Cell Line | relative viability (Obatoclax + Bortezomib; first compound 0.01 µM) | relative viability (Obatoclax + Bortezomib; first compound 0.03162 µM) | relative viability (Obatoclax + Bortezomib; first compound 0.1 µM) | relative viability (Obatoclax + Bortezomib; first compound 0.3162 µM) | relative viability (Obatoclax + Bortezomib; first compound 1 µM) | relative viability (Obatoclax + Luminespib; first compound 0.01 µM) | relative viability (Obatoclax + Luminespib; first compound 0.03162 µM) | relative viability (Obatoclax + Luminespib; first compound 0.1 µM) | relative viability (Obatoclax + Luminespib; first compound 0.3162 µM) | relative viability (Obatoclax + Luminespib; first compound 1 µM) | relative viability (Bortezomib + Olaparib; first compound 0.0002 µM) | relative viability (Bortezomib + Olaparib; first compound 0.000632 µM) | relative viability (Bortezomib + Olaparib; first compound 0.002 µM) | relative viability (Bortezomib + Olaparib; first compound 0.006325 µM) | relative viability (Bortezomib + Olaparib; first compound 0.02 µM) | relative viability (Bortezomib + OSI-027; first compound 0.0002 µM) | relative viability (Bortezomib + OSI-027; first compound 0.000632 µM) | relative viability (Bortezomib + OSI-027; first compound 0.002 µM) | relative viability (Bortezomib + OSI-027; first compound 0.006325 µM) | relative viability (Bortezomib + OSI-027; first compound 0.02 µM)
1 | HCC-15 | 0.973 | 1.02 | 0.926 | 0.957 | 0.739 | 0.302 | 0.148 | 0.267 | 0.361 | 0.274 | 0.763 | 0.734 | 0.662 | 0.108 | 0.0913 | 0.677 | 0.707 | 0.667 | 0.0893 | 0.0735
2 | HCC-44 | 0.861 | 0.836 | 0.822 | 0.769 | 0.386 | 1.07 | 0.992 | 0.658 | 0.65 | 0.167 | 0.942 | 0.986 | 0.99 | 0.715 | 0.315 | 0.462 | 0.523 | 0.472 | 0.252 | 0.197
3 | HCC-827 | 0.928 | 0.861 | 0.821 | 0.855 | 1.04 | 0.676 | 0.575 | 0.6 | 0.706 | 0.76 | 0.725 | 0.611 | 0.357 | 0.14 | 0.138 | 0.837 | 0.747 | 0.859 | 0.236 | 0.103
4 | HOP-62 | 0.909 | 0.787 | 0.639 | 0.739 | 0.719 | 0.854 | 0.815 | 0.846 | 0.88 | 0.926 | 0.392 | 0.448 | 0.165 | 0.0947 | 0.0397 | 0.981 | 0.914 | 0.691 | 0.149 | 0.0803
5 | LC-2-ad | 0.979 | 0.98 | 0.98 | 0.785 | 0.339 | 0.984 | 0.914 | 0.773 | 0.733 | 0.361 | 0.68 | 0.723 | 0.782 | 0.194 | 0.184 | 0.76 | 0.621 | 0.986 | 0.209 | 0.174
6 | LCLC-97TM1 | 0.735 | 0.449 | 0.439 | 0.619 | 0.213 | 0.734 | 0.563 | 0.788 | 0.761 | 0.532 | 0.343 | 0.431 | 0.264 | 0.0586 | 0.0773 | 0.475 | 0.336 | 0.583 | 0.233 | 0.129
7 | LCLC-103H | 1.01 | 1 | 0.992 | 1.07 | 1.05 | 0.948 | 0.875 | 1.02 | 0.911 | 0.969 | 0.747 | 0.778 | 0.671 | 0.355 | 0.202 | 0.482 | 0.511 | 0.492 | 0.201 | 0.14
8 | LOU-NH91 | 0.531 | 0.435 | – | 0.367 | 0.441 | 0.351 | 0.367 | 0.345 | 0.265 | 0.294 | 0.893 | 0.84 | 0.348 | 0.318 | 0.286 | 0.688 | 0.68 | 0.581 | 0.298 | 0.251
9 | LU99A | 1.12 | 1.13 | 1.03 | 0.357 | 0.224 | 0.268 | 0.243 | 0.259 | 0.229 | 0.246 | 0.238 | 0.26 | 0.242 | 0.154 | 0.122 | 0.328 | 0.294 | 0.318 | 0.296 | 0.197
10 | LXF-289 | 1.01 | 1.01 | 0.999 | 0.958 | 0.847 | 0.707 | 0.649 | 0.594 | 0.619 | 0.662 | 1.01 | 1.03 | – | 0.0822 | 0.0818 | 0.773 | 0.754 | 0.803 | 0.0966 | 0.0619
11 | NCI-H23 | 1.03 | 0.873 | 1.13 | 0.804 | 0.762 | 0.21 | 0.193 | 0.195 | 0.185 | 0.191 | 0.362 | – | 0.247 | 0.0989 | 0.0819 | 0.579 | 0.335 | 0.542 | 0.282 | 0.138
12 | NCI-H322M | 1.13 | 1.21 | 1.41 | 1.16 | 1.34 | 0.949 | 0.809 | – | 0.758 | 0.39 | 0.755 | 0.704 | 0.825 | 0.586 | 0.452 | 0.524 | – | 0.519 | 0.288 | 0.27
13 | NCI-H441 | 0.378 | 0.498 | 0.413 | 0.291 | 0.22 | 0.416 | 0.316 | 0.278 | 0.223 | 0.236 | 0.446 | 0.601 | 0.165 | 0.11 | 0.102 | 0.648 | 0.38 | 0.233 | 0.154 | 0.188
14 | NCI-H460 | 1.01 | 1.19 | 0.945 | 0.0492 | 0.0392 | 0.0359 | 0.0371 | 0.0282 | 0.0268 | 0.019 | 0.355 | 0.422 | 0.392 | 0.0694 | 0.0397 | 0.561 | 0.478 | 0.64 | 0.126 | 0.021
15 | NCI-H520 | 0.664 | 0.525 | 0.562 | 0.299 | 0.264 | 0.231 | 0.215 | 0.257 | 0.246 | 0.205 | 0.333 | 0.334 | 0.218 | 0.117 | 0.116 | 0.193 | 0.235 | 0.196 | 0.272 | 0.223
16 | NCI-H596 | 1.12 | 0.974 | 0.812 | 0.696 | 0.674 | 1.04 | 0.852 | 0.859 | 0.611 | 0.574 | 0.723 | 0.709 | 0.445 | 0.186 | 0.187 | 0.804 | 0.619 | 0.766 | 0.21 | 0.195
17 | NCI-H647 | 0.902 | 0.853 | 0.541 | 0.351 | 0.143 | 0.128 | 0.186 | 0.179 | 0.21 | 0.114 | 0.518 | 0.374 | 0.148 | 0.0277 | 0.0271 | 0.574 | 0.437 | 0.483 | 0.0304 | 0.0382
18 | NCI-H661 | 0.805 | 0.704 | 0.865 | 0.843 | 0.786 | 0.917 | 0.937 | 0.921 | 0.808 | 0.601 | 0.745 | 0.69 | 0.78 | 0.376 | 0.213 | 0.659 | 0.658 | 0.688 | 0.33 | 0.183
19 | NCI-H727 | 0.892 | 0.827 | 1.17 | 0.847 | 0.335 | 0.278 | 0.344 | 0.347 | 0.316 | 0.342 | 0.673 | 0.968 | 0.681 | 0.803 | 0.176 | 0.557 | 0.515 | 0.494 | 0.467 | 0.378
20 | NCI-H838 | 1.01 | 0.748 | 0.495 | 0.754 | 0.404 | 0.226 | 0.222 | 0.3 | 0.243 | 0.188 | 0.739 | 0.789 | 0.792 | 0.124 | 0.0906 | 0.355 | 0.363 | 0.44 | 0.178 | 0.131
21 | NCI-H1355 | 1.23 | 1.11 | 1.09 | 1.06 | 1.21 | 0.641 | 0.588 | 0.769 | 0.632 | 0.78 | 0.733 | 0.725 | 0.666 | 0.118 | 0.107 | 0.386 | 0.356 | 0.44 | 0.22 | 0.163
22 | NCI-H1437 | 0.463 | 0.421 | 0.477 | 0.438 | 0.358 | 1.09 | 1.17 | 1.04 | 0.983 | 0.956 | 0.586 | 0.627 | 0.553 | 0.199 | 0.154 | 0.86 | 0.825 | 0.871 | 0.138 | 0.132
23 | NCI-H1650 | 0.208 | 0.198 | 0.196 | 0.19 | 0.197 | 0.172 | 0.208 | 0.21 | 0.202 | 0.23 | 0.607 | 0.757 | 0.165 | 0.12 | 0.157 | 0.657 | 0.383 | 0.205 | 0.132 | 0.133
24 | NCI-H1651 | 0.901 | 0.855 | 0.858 | 0.943 | 0.992 | 0.866 | 0.792 | 1.16 | 0.811 | 0.516 | 0.181 | 0.194 | 0.144 | 0.0868 | 0.0799 | 0.661 | 0.641 | 0.416 | 0.109 | 0.11
25 | NCI-H1666 | 0.863 | 0.815 | 0.979 | 0.348 | 0.35 | 1.05 | 1.06 | 1.03 | 0.509 | 0.378 | 0.684 | 0.783 | 0.697 | 0.511 | 0.45 | 0.802 | 0.869 | 0.945 | 0.43 | 0.324
26 | NCI-H1734 | 0.928 | 0.818 | – | 0.914 | 0.836 | 0.201 | 0.188 | 0.2 | 0.187 | 0.18 | 0.555 | 0.661 | 0.443 | 0.115 | 0.0968 | 0.635 | 0.452 | 0.541 | 0.164 | 0.133
27 | NCI-H1755 | 0.926 | 0.937 | 0.805 | 0.949 | 0.967 | 0.416 | 0.418 | 0.388 | 0.714 | 0.713 | 0.845 | 0.896 | 0.828 | 0.241 | 0.207 | 0.706 | 0.568 | 0.68 | 0.27 | 0.228
